Data taken from US7232646B2, “Low-viscous, radiation curable formulation, particularly for the stereo-lithographical production of earpiece” (Dreve-Otoplastik GmbH, priority 2003, dated 2007).

Test: Window pane method for critical energy Ec and laser penetration depth Dp
Format: physicochemical
Details: inhibitor added to resin formulation; for influence of inhibitor concentration on laser penetration depth Dp: FIGS. 1 and 3; for influence of inhibitor concentration on critical energy Ec: FIGS. 2 and 4
Method: Into the mixture according to the invention, 2,2,6,6-tetramethylpiperdine-1-yloxy (free radical) is added. The influence of the concentration of the 2,2,6,6-tetramethylpiperdine-1-yloxy (free radical) in the exemplary formalation 1 upon the penetration depth of the laser beam and energy has been shown in FIGS. 1 and 2. The laser penetration depth and the critical energy are determined by means of the window pane method described by P. F. Jacobs and D. R. Read in Rapid Prototyping and Manufacturing of the Society of Manufacturing Engineers, Dearborn, Mich. (1992), 1st, ed., pgs. 263-280. […] This influence of the inhibitor 2,2,6,6-tetramethylpiperdine-1-yloxy (free radical) upon the relevant parameters Ec (critical energy in mJ cm^−2) and Dp (laser penetration depth in mils) of the stereolithographic resin, the effect differing from the influence of the inhibitors like, for example, hydroquinone-monomethylether which are added to stereolithographic resins in accordance with the state of the art. The influence of the hydroquinonemonomethylether on the parameters Ec and Dp in the exemplary formulations 2 is shown in FIGS. 3 and 4.
The relevant parameters for the use of the above mentioned resins in stereolithography are collected in Table 1. All viscosity measurements were carried out at 23° C. with a CVO 120 rheometer of Bohlin Instruments. The determination of the bend strength, the modulus of elasticity and the elongation were carried out in accordance with EN ISO 178 (1996) with a Zwick 1—test machine of the Zwick firm. For the determination of the Ec and Dp values by means of the above mentioned window pane method, the average value from 10 window pane sample bodies was determined. The sample bodies were produced with a Viper Si^2 SLA apparatus equipped with an ND:YVO4 solid body laser. The green bodies were after hardened with a stroboscope lighting unit Sonolux PR from Innovation Meditech by means of 4000 flashes.

SMILES: CC1(C)CCCC(C)(C)N1[O] [2,2,6,6-tetramethylpiperdine-1-yloxy (free radical)]
- influence of inhibitor concentration on laser penetration depth Dp: only a limited change in the penetration depth
- influence of inhibitor concentration on critical energy Ec: surprising increase in the critical energy

SMILES: COc1ccc(O)cc1 [hydroauinonemonomethylether, hydroquinone-monomethylether]
- influence of inhibitor concentration on laser penetration depth Dp: greater than in the case of the use of the 2,2,6,6-tetramethyl piperdine-1-yloxy (free radical)
- influence of inhibitor concentration on critical energy Ec: can only be adjusted by significantly higher concentrations
